Source: ChEMBL document CHEMBL4483862, “Open-source discovery of chemical leads for next-generation chemoprotective antimalarials” (2018)

Test system: Plasmodium berghei
Assay: Luciferase/luciferin-expressing antifolate-resistant parasites were used to infect a culture of HepG2 cells that were pre-incubated with compounds. Infected hepatocytes emit light due to the luciferase reaction. Assay results are presented as the percent inhibition of light emission compared to control. […]
Assay type: functional
Details: sporozoite; for IC90: read-out: LUCIFERASE INFECTION ASSAY - IC90
[1] = read-out: LUCIFERASE INFECTION ASSAY - IC50

Q: Which results are given for CC1CC(NC(=O)c2cc3c(=O)n4ccccc4nc3n2C)CC(C)(C)C1 (stereo not given)?
A: IC50 (PBLUC_HILL_SLOPE 172, PBLUC_R_SQUARED 0.0501, read-out: LUCIFERASE INFECTION ASSAY - IC50): 2.7 µM; IC90: 2.74 µM

Q: O=C(CN1CCCc2ccccc21)NC(=O)NCc1ccccc1 was tested. Which IC50 (PBLUC_HILL_SLOPE 112, PBLUC_R_SQUARED 0.458, read-out: LUCIFERASE INFECTION ASSAY - IC50) did it give?
A: 7.29 µM

Q: What about the IC90 of the same compound?
A: 7.44 µM

Q: Which IC50 (PBLUC_HILL_SLOPE 145, PBLUC_R_SQUARED 0.235, read-out: LUCIFERASE INFECTION ASSAY - IC50) does the source give for COc1ccccc1N(Cc1ccccc1)S(=O)(=O)c1cccc(C(=O)NC2CC(C)(C)NC(C)(C)C2)c1 here?
A: 9.75 µM

Q: What about the IC90 of the same compound?
A: 9.9 µM

Q: NC(Cc1ccc(F)cc1)c1csc(Nc2ccc(C(F)(F)F)cn2)n1 (stereo not given) was tested. Which IC50 (PBLUC_HILL_SLOPE 202, PBLUC_R_SQUARED 0.785, read-out: LUCIFERASE INFECTION ASSAY - IC50) did it give?
A: 5.91 µM

Q: And the IC90?
A: 5.98 µM

Q: How did the IC50 (PBLUC_HILL_SLOPE 104, PBLUC_R_SQUARED 0.386, read-out: LUCIFERASE INFECTION ASSAY - IC50) turn out when COc1ccc(CC(N)c2csc(NC(=O)Nc3ccccc3C(C)(C)C)n2)cc1 (stereo not given) was run?
A: 4.18 µM

Q: What about the IC90 of the same compound?
A: 4.27 µM

Q: For COc1cccc(Nc2nc(C(N)Cc3ccc(C(F)(F)F)cc3)cs2)n1 (stereo not given), which IC50 (PBLUC_HILL_SLOPE 179, PBLUC_R_SQUARED 0.233, read-out: LUCIFERASE INFECTION ASSAY - IC50) is on record?
A: 3.53 µM

Q: And the IC90?
A: 3.58 µM

Q: CCNC(=O)C1CCCN(Cc2cc(C(F)(F)F)ccc2Cl)CC1 (stereo not given) was tested. Which IC50 (PBLUC_HILL_SLOPE 383, PBLUC_R_SQUARED 0.415, read-out: LUCIFERASE INFECTION ASSAY - IC50) did it give?
A: 3.38 µM

Q: What about the IC90 of the same compound?
A: 3.4 µM

Q: What does the source list for C=C(c1c[nH]c2ccccc12)c1c[nH]c2ccccc12?
A: IC50 (PBLUC_HILL_SLOPE 132, PBLUC_R_SQUARED 0.705, read-out: LUCIFERASE INFECTION ASSAY - IC50): 9.85 µM; IC90: > 10 µM

Q: CCCn1c(N)c(C(=O)CN(C)Cc2cccc(Cl)c2Cl)c(=O)[nH]c1=O was tested. Which IC50 (PBLUC_HILL_SLOPE 149, PBLUC_R_SQUARED 0.302, read-out: LUCIFERASE INFECTION ASSAY - IC50) did it give?
A: 3.33 µM

Q: And the IC90?
A: 3.38 µM

Q: For Cc1ccc(CNc2nc(NCc3cccs3)nc3ccsc23)c(C)c1, which IC50 (PBLUC_HILL_SLOPE 356, PBLUC_R_SQUARED 0.443, read-out: LUCIFERASE INFECTION ASSAY - IC50) is on record?
A: 1.62 µM

Q: And the IC90?
A: 1.63 µM

Q: Which IC50 (PBLUC_HILL_SLOPE 167, PBLUC_R_SQUARED 0.12, read-out: LUCIFERASE INFECTION ASSAY - IC50) does the source give for COc1ccc(C(N)c2csc(NC(=O)NC(c3ccccc3)c3ccccc3)n2)cc1 (stereo not given) here?
A: 3.31 µM

Q: What about the IC90 of the same compound?
A: 3.36 µM

Q: What does the source list for CNc1snc(C)c1C(=O)OCCCOC(=O)c1c(C)nsc1NC?
A: IC50 (PBLUC_HILL_SLOPE 109, PBLUC_R_SQUARED 0.523, read-out: LUCIFERASE INFECTION ASSAY - IC50): 6.54 µM; IC90: 6.67 µM

Q: How did the IC50 (PBLUC_HILL_SLOPE 207, PBLUC_R_SQUARED 0.671, read-out: LUCIFERASE INFECTION ASSAY - IC50) turn out when Cc1nc(-c2cccc(NC(=O)c3ccc(OC(F)F)cc3)c2)[nH]c1C was run?
A: 2.66 µM

Q: And the IC90?
A: 2.68 µM

Q: How did the IC50 (PBLUC_HILL_SLOPE 433, PBLUC_R_SQUARED 0.479, read-out: LUCIFERASE INFECTION ASSAY - IC50) turn out when Cc1ccc(C)c(-c2csc(NC(=O)CCNC(=O)c3ccsc3)n2)c1 was run?
A: 5.35 µM

Q: What about the IC90 of the same compound?
A: 5.37 µM

Q: How did the IC50 (PBLUC_HILL_SLOPE 286, PBLUC_R_SQUARED 0.442, read-out: LUCIFERASE INFECTION ASSAY - IC50) turn out when CC(=O)NCCC(=O)N(Cc1ccccc1)c1nc2c(C(C)C)cccc2s1 was run?
A: 5.98 µM

Q: And the IC90?
A: 6.02 µM

Q: O=C(/C=C/c1cnn(Cc2ccccc2)c1)N1CCN(Cc2ccc(Cl)cc2)CC1 was tested. Which IC50 (PBLUC_HILL_SLOPE 126, PBLUC_R_SQUARED 0.0794, read-out: LUCIFERASE INFECTION ASSAY - IC50) did it give?
A: 6.85 µM

Q: What about the IC90 of the same compound?
A: 6.97 µM

Q: Which results are given for COc1ccc2c(C)cc3nnc(SCCOc4ccccc4F)n3c2c1?
A: IC50 (PBLUC_HILL_SLOPE 752, PBLUC_R_SQUARED 0.219, read-out: LUCIFERASE INFECTION ASSAY - IC50): 5.09 µM; IC90: 5.11 µM

Q: Which IC50 (PBLUC_HILL_SLOPE 117, PBLUC_R_SQUARED 0.0329, read-out: LUCIFERASE INFECTION ASSAY - IC50) does the source give for c1ccc(Sc2ncnc3sccc23)nc1 here?
A: 6.66 µM

Q: What about the IC90 of the same compound?
A: 6.79 µM

Q: Which results are given for Cc1cccc2sc(N(Cc3ccccc3)C(=O)CN3CCN(CC(=O)N4CCCC4)CC3)nc12?
A: IC50 (PBLUC_HILL_SLOPE 173, PBLUC_R_SQUARED 0.447, read-out: LUCIFERASE INFECTION ASSAY - IC50): 6.63 µM; IC90: 6.71 µM

Q: Which IC50 (PBLUC_HILL_SLOPE 158, PBLUC_R_SQUARED 0.0148, read-out: LUCIFERASE INFECTION ASSAY - IC50) does the source give for CCOc1cc(/C=C(/C(=O)c2ccc(Br)cc2)c2nc3ccccc3[nH]2)ccc1O here?
A: 4.53 µM

Q: And the IC90?
A: 4.59 µM

Q: How did the IC50 (PBLUC_HILL_SLOPE 228, PBLUC_R_SQUARED 0.104, read-out: LUCIFERASE INFECTION ASSAY - IC50) turn out when CCc1sc(C(=O)Nc2ccc(F)c(Cl)c2)cc1C was run?
A: 8.49 µM

Q: What about the IC90 of the same compound?
A: 8.57 µM

Q: Which results are given for CCn1nnc2cc(C(=O)Nc3cc(C(F)(F)F)ccc3N(C)C)ccc21?
A: IC50 (PBLUC_HILL_SLOPE 154, PBLUC_R_SQUARED 0.344, read-out: LUCIFERASE INFECTION ASSAY - IC50): 7.63 µM; IC90: 7.74 µM

Q: CSc1nc(=O)nc(-c2ccc(Cl)cc2)[nH]1 was tested. Which IC50 [1] did it give?
A: > 13 µM

Q: What about the IC90 of the same compound?
A: > 13 µM

Q: CC(C)C(N)c1csc(NC(=O)c2cc(C(C)(C)C)nn2Cc2ccccc2)n1 (stereo not given) was tested. Which IC50 (PBLUC_HILL_SLOPE 594, PBLUC_R_SQUARED 0.291, read-out: LUCIFERASE INFECTION ASSAY - IC50) did it give?
A: 3.45 µM

Q: And the IC90?
A: 3.46 µM

Q: Which results are given for CCn1c(NC(=O)Cc2c(Cl)cccc2Cl)nc2ccccc21?
A: IC50 (PBLUC_HILL_SLOPE 118, PBLUC_R_SQUARED 0.0721, read-out: LUCIFERASE INFECTION ASSAY - IC50): 6.16 µM; IC90: 6.27 µM

Q: Which IC50 (PBLUC_HILL_SLOPE 113, PBLUC_R_SQUARED 0.339, read-out: LUCIFERASE INFECTION ASSAY - IC50) does the source give for Cc1cccc(Nc2ccccc2C(=O)OCC(=O)N2CCNC2=O)c1C here?
A: 6.94 µM

Q: And the IC90?
A: 7.08 µM

Q: With O=C(Nc1ccc(OC(F)(F)F)cc1)Nc1ccc2nc(-c3ccco3)nn2c1 as the compound, how does the IC50 (PBLUC_HILL_SLOPE 672, PBLUC_R_SQUARED 0.263, read-out: LUCIFERASE INFECTION ASSAY - IC50) read?
A: 7.48 µM

Q: And the IC90?
A: 7.51 µM

Q: How did the IC50 (PBLUC_HILL_SLOPE 130, PBLUC_R_SQUARED 0.0623, read-out: LUCIFERASE INFECTION ASSAY - IC50) turn out when COC(=O)c1occc1CSc1nc2ccc(Br)cc2c(=O)n1-c1ccccc1 was run?
A: 10 µM

Q: And the IC90?
A: > 10 µM

Q: For O=C(Nc1cccc(F)c1)Nc1ccc2nc(-c3cccs3)nn2c1, which IC50 (PBLUC_HILL_SLOPE 208, PBLUC_R_SQUARED 0.19, read-out: LUCIFERASE INFECTION ASSAY - IC50) is on record?
A: 4.29 µM

Q: What about the IC90 of the same compound?
A: 4.34 µM

Q: NC(Cc1ccccc1)c1csc(Nc2ccc(-c3ccccc3)nn2)n1 (stereo not given) was tested. Which IC50 (PBLUC_HILL_SLOPE 170, PBLUC_R_SQUARED 0.669, read-out: LUCIFERASE INFECTION ASSAY - IC50) did it give?
A: 5.74 µM

Q: And the IC90?
A: 5.82 µM

Q: Which results are given for Cc1ccc(C(C)C)cc1OCC(=O)N1CCC(C(=O)Nc2ccccc2O)CC1?
A: IC50 (PBLUC_HILL_SLOPE 135, PBLUC_R_SQUARED 0.614, read-out: LUCIFERASE INFECTION ASSAY - IC50): 4.51 µM; IC90: 4.58 µM

Q: Which IC50 (PBLUC_HILL_SLOPE 280, PBLUC_R_SQUARED 0.522, read-out: LUCIFERASE INFECTION ASSAY - IC50) does the source give for CC(C)c1ccc2c(c1)/C(=N/NC(=O)c1ccccc1F)C(=O)N2 here?
A: 0.0833 µM

Q: What about the IC90 of the same compound?
A: 0.084 µM

Q: For COc1ccc(N2C(=N)C(c3nc4ccccc4s3)C(=O)C2c2ccccc2)cc1 (stereo not given), which IC50 (PBLUC_HILL_SLOPE 428, PBLUC_R_SQUARED 0.387, read-out: LUCIFERASE INFECTION ASSAY - IC50) is on record?
A: 4.04 µM

Q: And the IC90?
A: 4.06 µM

Q: Which IC50 [1] does the source give for FC(F)(F)c1ccccc1NC(=S)N1CCCN(c2nc3ccc(Cl)cc3s2)CC1 here?
A: 2.32 µM

Q: What about the IC90 of the same compound?
A: 2.54 µM

Q: For CC(C)CCNCC(O)CON=C1c2ccccc2-c2ccccc21 (stereo not given), which IC50 [1] is on record?
A: > 10 µM

Q: And the IC90?
A: > 10 µM
